Measurements taken from ChEMBL document CHEMBL3880431, “Heme oxygenase inhibitors, screening methods for heme oxygenase inhibitors and methods of use of heme oxygenase inhibitors for antimicrobial therapy” (2013).

Columns and labels:
[1] = Lipophilicity, log P of the compound; assay type: physicochemical; conditions: octanol/water
[2] = Solubility of the compound in methanol; assay type: physicochemical
[3] = Solubility of the compound in ethanol; assay type: physicochemical
[4] = molecular target: T1, Biliverdin-producing heme oxygenase (Neisseria meningitidis, UniProt Q9AH50); assay: Binding affinity to Neisseria meningitidis wild type apo heme oxygenase expressed in Escherichia coli BL21(DE3) pLysS by spectrofluorimetric analysis
T1 sequence (Q9AH50 whole entry): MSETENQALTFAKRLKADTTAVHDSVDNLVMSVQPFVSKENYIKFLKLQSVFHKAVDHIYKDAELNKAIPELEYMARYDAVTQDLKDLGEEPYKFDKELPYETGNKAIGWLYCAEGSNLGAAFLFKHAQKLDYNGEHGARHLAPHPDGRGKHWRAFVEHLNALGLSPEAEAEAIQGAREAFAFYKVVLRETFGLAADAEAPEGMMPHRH

Heme oxygenase = molecular target: T2, Heme oxygenase (Pseudomonas aeruginosa, UniProt O69002); assay: Binding affinity to Pseudomonas aeruginosa MPAO1 wild type apo heme oxygenase by spectrofluorimetric analysis
T2 sequence (O69002 whole entry): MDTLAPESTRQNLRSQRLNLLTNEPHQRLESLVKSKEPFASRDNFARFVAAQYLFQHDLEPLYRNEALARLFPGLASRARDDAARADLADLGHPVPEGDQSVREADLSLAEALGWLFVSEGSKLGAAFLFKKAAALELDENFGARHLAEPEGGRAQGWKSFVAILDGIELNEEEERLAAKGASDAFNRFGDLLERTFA

Pseudomonas aeruginosa = assay: Antimicrobial activity against Pseudomonas aeruginosa MPAO1 after 10 hrs; assay type: functional; conditions: MPAO1, 10 h

Row | SMILES | logP ([1]; read-out: logP) | solubility [2] | also measured
1 | NCC(O)(c1ccc(Cl)cc1)c1ccc(Cl)cc1 | 3.63 | Soluble | 
2 | Cc1n[nH]c(Nc2ccccc2F)c1[N+](=O)[O-] | 2.63 |  | solubility [3]: Insoluble
3 | Oc1ccccc1/C=N/Nc1nnn[nH]1 | 3.23 | Insoluble | 
4 | NNC(=O)c1cccc2cc[nH]c12 | 0.8 |  | solubility [3]: Insoluble
5 | Nc1nonc1-c1noc(-c2cccnc2O)n1 | 0.04 | Insoluble | 
6 | Cc1cccc(NC(=O)c2ccc(C(=O)Nc3cccc(C)n3)cc2)n1 | 2.68 | Insoluble | 
7 | O=C(N/N=C/c1ccc(O)cc1O)c1cccnc1 | 1.88 | Insoluble | 
8 | O=C(O)/C=C\C(=O)Nc1ccc(OCC(=O)O)cc1 | 0.6 | Soluble | 
9 | CCN(CC)c1ccc(/C=N/n2nnnc2N)c(O)c1 | 1.17 | Soluble | Kd [4]: Active; Kd (Heme oxygenase): Active
10 | Nc1cc(-c2ccc(F)cc2)nc(N)n1 | 1.07 |  | Kd [4]: Active; Kd (Heme oxygenase): Active; solubility [3]: Soluble
11 | COc1ccc(-c2nn(CCC#N)c(=O)[nH]2)cc1 | 1.15 |  | solubility [3]: Soluble
12 | O=C(NCCOc1ccccc1)C(=O)Nc1ccccc1 | 1.77 | Insoluble | 
13 | O=[N+]([O-])c1cccc(CN2CCNCC2)c1 | 1.18 | Soluble | MIC50 (Pseudomonas aeruginosa): > 1000 µg/mL
14 | Nc1cnccc1C(=O)O | 0.32 to 3 |  | Kd ([4]; read-out: Kd): 33.5 µM; Kd (Heme oxygenase; read-out: Kd): 44.7 µM
15 | CC(=O)Oc1ccc(-c2cccc(C(=O)O)c2)cc1 | 3.51 | Soluble | MIC50 (Pseudomonas aeruginosa): > 1000 µg/mL
16 | CCN1CCN(CCN)CC1 | -0.88 | Soluble | 
17 | O=C(O)c1ccc2c(c1)C(=O)N(c1ccc(Cl)cc1)C2=O | 3.03 | Soluble | 
18 | CN(CC(=O)O)c1nc2ccc([N+](=O)[O-])cc2s1 | 1.92 | Soluble | Kd [4]: Active; Kd (Heme oxygenase): Active
19 | O=C(O)c1cc(-c2cccnc2)nc2ccccc12 | 2.51 | Insoluble | 
20 | CCc1cc(=O)oc2cc(OCC(N)=O)ccc12 | 1.46 | Insoluble | 
21 | C=CCNC(=O)C(=O)Nc1ccc(C(C)C)cc1 | 2 | Insoluble | 
22 | O=C(O)c1cccc(NCN2C(=O)c3ccc([N+](=O)[O-])cc3C2=O)c1 | 2.13 |  | solubility [3]: Insoluble

Row | SMILES | logP ([1]; read-out: logP) | solubility [2] | also measured
23 | Cc1ccc(S(=O)(=O)NC(=O)NCc2ccco2)cc1 | 1.2 |  | solubility [3]: Insoluble
24 | O=C(O)CN1C(=O)c2ccccc2C1=O | 0.58 | Soluble | solubility [3]: Soluble
25 | CC(C)c1ccc(CN2CCN(CCO)CC2)cc1 | 1.93 | Insoluble | 
26 | CN1CCN(CCCn2cnc3c2c(=O)n(C)c(=O)n3C)CC1 | -0.76 | Soluble | 
27 | Cn1c(=N)n(CC(=O)O)c2ccccc21 | 1.6 |  | solubility [3]: Soluble
28 | CC(=O)Nc1ccc(/N=C/c2ccco2)cc1 | 1.54 | Soluble | 
29 | COc1cc(CC(=O)O)c([N+](=O)[O-])cc1OC | 1.3 |  | solubility [3]: Insoluble
30 | COc1ccc(C(=O)/C=C/Nc2ccccc2C#N)cc1 | 2.82 |  | solubility [3]: Insoluble
31 | COc1ccc(C(=O)CCC(=O)O)c(C)c1 | 1.6 |  | Kd [4]: Active; Kd (Heme oxygenase): Active; solubility [3]: Soluble
32 | N#CCc1ccc(NC2=NS(=O)(=O)c3ccccc32)cc1 | 2.81 | Insoluble | 
33 | Cc1ccccc1C(=O)Nc1cc(C(=O)O)cc(C(=O)O)c1 | 2.62 | Insoluble | Kd ([4]; read-out: Kd): 28.8 µM; Kd (Heme oxygenase; read-out: Kd): 72.8 µM
34 | COc1cc(/C=N/Cc2ccco2)ccc1O | 2.07 | Soluble | Kd [4]: Active; Kd (Heme oxygenase): Active
35 | Cc1c(OC(C)C(=O)O)ccc2c3c(c(=O)oc12)CCC3 (configuration not stated) | 2.6 | Insoluble | 
36 | O=C(O)CSc1ncnc2ccccc12 | 1.46 | Insoluble | MIC50 (Pseudomonas aeruginosa): > 1000 µg/mL
37 | Cc1ccc(CN2CCN(Cc3ccccc3)CC2)cc1 | 3.57 | Insoluble | 
38 | COc1ccc(C(=O)COC(=O)/C=C/c2ccccc2)cc1 | 3.7 | Insoluble | 
39 | NC(=O)NC(=O)C[n+]1ccc(C(N)=O)cc1 | -1.11 |  | solubility [3]: Insoluble
40 | O=C(Oc1ccc(OC(=O)c2ccco2)cc1)c1ccco1 | 2.53 | Insoluble | 
41 | O=C(NCc1ccco1)c1cc(C(=O)NCc2ccco2)cc([N+](=O)[O-])c1 | 1.56 | Soluble | 
42 | CN(C)CCN(C)Cc1cccc2ccccc12 | 3.05 | Insoluble | 
43 | N=C(N/N=C\c1cccnc1)N/N=C\c1cccnc1 | 7.05 | Soluble | 
44 | O=C1c2ccccc2-c2nc3n[nH]nc3nc21 | 2 |  | 

Row | SMILES | logP ([1]; read-out: logP) | solubility [2] | also measured
45 | O=C(O)c1ccc2c(c1)-c1nc3ccccc3n1C2=O | 2.52 |  | solubility [3]: Insoluble
46 | Nc1nonc1-n1cc(-c2ccccc2)nn1 | 1.15 |  | 
47 | N#CC(C#N)=CNNC(=O)CNC(=O)c1ccccc1[N+](=O)[O-] | -0.72 |  | solubility [3]: Insoluble
48 | O=C(O)/C=C\C(=O)Nc1ccc(Nc2ccccc2)cc1 | 2.6 | Soluble | 
49 | C/N=C(/NC)SC1CC(=O)N(c2cccc(C(=O)O)c2)C1=O (configuration not stated) | 1.25 |  | 
50 | O=C(c1ccco1)C12CN3CN(CN(C3)C1)C2 | -0.96 | Soluble | 
51 | O=C1OC(c2ccccc2)=N/C1=C\Nc1cccc([N+](=O)[O-])c1 | 3.05 | Insoluble | 
52 | O=C(O)Cn1c(=O)c2cc3c(=O)n(CC(=O)O)c(=O)c3cc2c1=O | -0.68 | Insoluble | Kd ([4]; read-out: Kd): 20.9 µM; Kd (Heme oxygenase; read-out: Kd): 6.1 µM
53 | NC(N)N/N=C/c1cc(=O)[nH]c(=O)[nH]1 | -1.79 |  | 
54 | O=C(CNC(=O)c1ccc2[nH]c3ccccc3c2c1)NCCO | 1.4 |  | 
55 | O=C(O)CCC(=O)Nc1ccc(Oc2ccccc2)cc1 | 2.36 |  | 
56 | O=C1C=C(Nc2ccccc2O)c2ccccc2C1=O | 2.8 |  | solubility [3]: Soluble
57 | Nc1nnnn1/N=C/c1cc2c(cc1[N+](=O)[O-])OCO2 | 0.52 | Insoluble | 
58 | O=C(O)C(=O)Cc1c[nH]c2ccccc12 | 1.59 |  | Kd [4]: Active; Kd (Heme oxygenase): Active; solubility [3]: Soluble
59 | Nc1ccccc1N/C=C1/C(=O)CNC1=O | -0.57 |  | 
60 | Cc1cn[nH]c1NC=C1C(=O)c2ccccc2C1=O | 1.79 |  | 
61 | COc1ccc(/C=N/NC(=O)Cc2ccc([N+](=O)[O-])cc2)cc1 | 3.67 |  | 
62 | Cc1cc(C)nc(NC(=N)Nc2ccc(C(=O)O)cc2)n1 | 1.62 | Soluble | 
63 | O=C(CNc1ccc2ccccc2c1)N/N=C/c1ccccn1 | 3.16 |  | solubility [3]: Insoluble
64 | O=C(Nc1ccc(-c2cn3ccccc3n2)cc1)c1ccccc1[N+](=O)[O-] | 3.56 | Soluble | MIC50 (Pseudomonas aeruginosa): > 380 µg/mL
65 | O=CNc1nonc1NNc1ccccc1 | 0.89 | Soluble | 
66 | O=C(O)c1ccc2c(c1)C(=O)N(CCO)C2=O | 0.09 | Soluble | 

Row | SMILES | logP ([1]; read-out: logP) | solubility [2] | also measured
67 | CCc1ccc2[nH]c3nc(N/N=C/c4ccc(Cl)cc4)nnc3c2c1 | 7.15 | Insoluble | 
68 | Cc1ccccc1C(=O)O/N=C(\N)c1cccnc1 | 2.61 |  | 
69 | Cc1cc(O)nc(-c2ccc(C(N)=O)cc2)n1 | 0.86 |  | solubility [3]: Insoluble
70 | Cc1ccc(NC(=O)c2cnccn2)cc1Cl | 1.48 | Insoluble | 
71 | CC(N)c1ccc2ccccc2c1 (configuration not stated) | 2.88 |  | 
72 | N#Cc1ncc(-c2ccccc2)nc1C#N | 0.8 |  | 
73 | O=C(CSc1nc2cccnc2[nH]1)NCCc1ccccc1 | 2.43 |  | 
74 | O=C(O)Cc1c(C(=O)O)[nH]c2ccccc12 | 1.67 |  | 
75 | C=CCn1c(S)nc2sc3c(c2c1=O)CCN(C)C3 | 2.29 |  | 
76 | O=C(NNC(=O)c1ccncc1)c1ccncc1 |  | Soluble | logP [1]: 0.05
77 | O=[N+]([O-])c1cccc(-c2noc(Cc3ccccc3)n2)c1 | 3.33 |  | solubility [3]: Insoluble
78 | NCCNS(=O)(=O)c1cccc(C(=O)O)c1 | -0.2 |  | 
79 | O=C(Cc1n[nH]c(=O)[nH]c1=O)N/N=C/c1cccc([N+](=O)[O-])c1 | 0.86 |  | solubility [3]: Insoluble
80 | O=C(Cc1ccc([N+](=O)[O-])cc1)N/N=C/c1ccc(O)cc1 | 3.41 | Insoluble | 
81 | O=C(CNC(=O)c1cccnc1)N/N=C/c1ccccn1 | 0.32 | Soluble | 
82 | O=C(Cc1ccc(Cl)cc1)N/N=C/c1c[nH]c2ccccc12 | 4.74 | Soluble | 
83 | NC(=O)c1ccc(NC(=O)/C=C\C(=O)O)cc1Cl | 0.79 | Soluble | Kd ([4]; read-out: Kd): 239 µM; Kd (Heme oxygenase; read-out: Kd): 187 µM
84 | O=C(O)CCn1ncc2ccccc21 | 0.91 |  | solubility [3]: Soluble
85 | Nc1nonc1N/N=C/c1ccc(O)c(O)c1 | 3.18 |  | 
